In patent US20220111055A1, “MODIFIED HYDROPHOBIC EXCIPIENT AND PREPARATION METHOD THEREOF” (ZHEJIANG ZHIDA PHARMACEUTICAL CO., LTD., priority 2019, published 2022):

Experiment: Solubility of paclitaxel in olive oil, castor oil and hydrophobic excipients (crystal formation in dried sample)
Type: physicochemical
Conditions: for solubility of paclitaxel (crystal formation in the dried sample): 0.5 ml paclitaxel chloroform solution (10 mg/ml), volatilized overnight
Description: The specific experimental method was as follows. […] The chloroform solution was mixed with 0.5 ml of chloroform, from which 0.5 ml of diluent was taken and two-fold serial dilution was performed by using chloroform. Then 0.5 ml of a chloroform solution of paclitaxel (10 mg/ml) was added to the above-mentioned sample after the two-fold serial dilution, and then left in a hood to be naturally volatilized overnight. Crystal formation in the dried sample was observed and recorded.

SMILES: CCCCCCCC/C=C\CCCCCCCCNC(=O)CC[C@@H](C)[C@H]1CC[C@H]2[C@@H]3[C@H](OC(=O)CNC(=O)[C@H](CCCCNC(=O)OC(C)(C)C)NC(=O)OCC4c5ccccc5-c5ccccc54)C[C@@H]4C[C@H](OC(=O)CNC(=O)[C@H](CCCCNC(=O)OC(C)(C)C)NC(=O)OCC5c6ccccc6-c6ccccc65)CC[C@]4(C)[C@H]3C[C@H](OC(=O)CNC(=O)[C@H](CCCCNC(=O)OC(C)(C)C)NC(=O)OCC3c4ccccc4-c4ccccc43)[C@]12C [Example 4]
- solubility of paclitaxel (crystal formation in the dried sample) (0.98 mg hydrophobic excipient): +
- solubility of paclitaxel (crystal formation in the dried sample) (1.95 mg hydrophobic excipient): +
- solubility of paclitaxel (crystal formation in the dried sample) (3.90 mg hydrophobic excipient): +
- solubility of paclitaxel (crystal formation in the dried sample) (7.81 mg hydrophobic excipient): +/−
- solubility of paclitaxel (crystal formation in the dried sample) (15.65 mg hydrophobic excipient): −
- solubility of paclitaxel (crystal formation in the dried sample) (31.30 mg hydrophobic excipient): −
- solubility of paclitaxel (crystal formation in the dried sample) (62.50 mg hydrophobic excipient): −
- solubility of paclitaxel (crystal formation in the dried sample) (125.00 mg hydrophobic excipient): −
- solubility of paclitaxel (crystal formation in the dried sample) (250.00 mg hydrophobic excipient): −
- solubility of paclitaxel in the excipient, comparison in words (compared with olive oil and castor oil, from Table 1): greater than that in olive oil and castor oil
